pEC50, pIC50, pKd: −log10 of the molar value. “Also recorded” adds a separate entry of the source.

This is an account of results in publication PMC7330483, “Identification of a Broad-Spectrum Viral Inhibitor Targeting a Novel Allosteric Site in the RNA-Dependent RNA Polymerases of Dengue Virus and Norovirus” (Frontiers in Microbiology, 2020).

Data set [1] concerns the target DENV RdRp. Details: method as in Noble et al., 2016. The conditions noted are these: ref Noble et al., 2016; read-out: KD DENV RdRp (literature); cited from earlier work.
The next data set concerns hNV-RdRp. The data set is described as follows: hNV-RdRp inhibition assay (PicoGreen dsRNA formation). The class given is biochemical, Norovirus GII.4 Sydney 2012. The conditions noted are these: dose response, two-fold dilutions.
Data set [2] deals with T1, DENV RdRp (Dengue virus type 3, UniProt Q6YMS4). The data set is described as follows: DENV-RdRp inhibition assay (PicoGreen dsRNA formation). The conditions noted are these: 40 μM compound. Details: RdRp gens of DENV; inferred from Ni-NTA purification and the pET-21a(+) vector); made in house; host or cells: Escherichia coli BL21. The class given is biochemical. The procedure: Polymerase activity was measured by detecting the formation of double-stranded RNA (dsRNA) using the fluorescent dye PicoGreen ([Singer et al., 1997]). RdRp assays were performed in a black 96-well plates, which protects reaction mixture from light. In vitro RNA synthesis assays were performed using a single-stranded RNA poly(C) as template and GTP as substrate in a 25 μL reaction mixture. 5 μL of DENV-RdRp (20 μM), dissolved in a reaction buffer containing 20 mM Tris–HCl (pH 7.4), 2.5 mM MnCl2, 5 mM DTT, was incubated with 1 μL of 1 mM compound (RAI-5, RAI-13, RAI-14, and JF-31-MG46 served as positive control) or the compound vehicle DMSO at 30°C for 10 min. Subsequently, 1 μL of 1 mg/mL poly(C) and 2 μL of 625 μM GTP were added into the mixture for 60 min at 30°C. The final concentrations of the reaction components are 4 μM DENV-RdRp, […], 50 μM GTP, 40 μM compound, 4% DMSO, […] (pH 7.4), 2.5 mM MnCl2 and 5 mM DTT. The reaction was terminated with 10 mM EDTA. After that, 175 μL of fluorescent dye PicoGreen, diluted 200-fold with TE buffer, was added to each well for 5 min at room temperature. Microplate reader was used to quantify the amount of dsRNA at standard wavelengths (excitation 480 nm, emission 520 nm).

A further data set deals with DENV2 (Tr1751). Kind of data set: Infection assay with DENV2 in A549 cells (qRT-PCR). The class given is cell-based. The procedure:
5 × 10^5 per well A549 cells were seeded into 6-well plates for 24 h, and infected with DENV2 (Tr1751) at an MOI of 0.1 in the presence of RAI-13 with 2-fold dilutions (from 0.08 to 20 μM) for 4 h. The culture supernatants were replaced by Fresh medium with RAI-13 with 2-fold dilutions. Cells were harvested at 48 h.p.i. The RNA extraction kit was used to extract total RNA. The level of viral RNA was determined by qRT-PCR analysis through one-step SYBR PrimeScript RT-PCR kit ([Yi et al., 2019]). The primer pair (forward: 5′-[…]-3′ and reverse: 5′-[…]-3′) amplifies partial envelop protein E gene of DENV2. The Forward and Reverse primers were also, respectively, used for minus-strand and plus-strand RNA reverse transcription. Human glyceraldehyde-3-phosphate dehydrogenase (hGAPDH) was served as an internal control and amplified with primers 5′-ATCA[…]-3′ and 5′-[…]-3′.
For orientation: Quantitative PCR measures a nucleic acid by following its amplification.

In a further data set the target is hNV RdRp. The data set is described as follows: Bio-layer interferometry (BLI) binding assay, hNV RdRp. Conditions: read-out: KD hNV RdRp, 1:1 binding model, global fit. On the technique in general: Biolayer interferometry detects binding as a change in optical thickness at a sensor tip.
In data set [3] the test system is Gaussia luciferase (Gluc). The data set is described as follows: Effect on Gluc activity in pcDNA-Gluc transfected Huh7.5.1 cells (negative control). The class given is cell-based. The conditions noted are these: concentrations up to 5 μM, 48 h.
For data set [4] the following is noted: oral, rat; no reference given; cited from earlier work.
A further data set has as its system Jc1-Gluc HCVcc. Kind of data set: Infection assay with Jc-1-Gluc HCVcc in Huh7.5.1 cells. The class given is cell-based, hepatitis C virus (HCV). The conditions noted are these: Hepatitis C virus. The procedure: 2 × 10^4 per well Huh7.5.1 cells were seeded into 96-well plates for 24 h, and then cells were incubated with RAI-13 (1 μM) and Jc1-Gluc HCVcc at an MOI of 1 for 4 h. Next, the culture supernatants were replaced by Fresh medium with 1 μM RAI-13. After 48 h, we measured the amounts of infectious Jc1 HCVcc in the supernatant by detecting the activity of Gaussia luciferase (Gluc), using a Centro XS3 LB 960 luminometer.

The next data set deals with RAW264.7 cells. The data set is described as follows: Cytotoxicity analysis (Cell Counting kit-8), RAW264.7. The class given is cell-based. The conditions noted are these: up to 10 μM, 48 h, CCK-8. How it is done: (§1) Twenty-four hour prior to the cytotoxicity assay, 4 × 10^4 RAW264.7 or A549 cells were seeded in 96-well plates. After that, 2-fold serial dilutions (from 0.625 to 40 μM) of RAI-13 were added to the cells. Cells treated with DMSO were served as the control. Cells were cultivated for 48 h, after that the cell viability was assessed by Cell Counting kit-8.
(Formazan colour is commonly taken as a measure of viable cells.)

Assay in data set [5]: as above
The class given is cell-based. The conditions noted are these: mouse, RAW264.7 cells, CCK-8. How it is done:
as §1

The next data set has as its system MNV(SH1603). Kind of data set: Infection assay with MNV in RAW264.7 cells (qRT-PCR). The class given is cell-based, murine norovirus (MNV).
The test system of a further data set is VSV-G/HIV-Fluc. The class given is cell-based, human immunodeficiency viruses type 1 (HIV-1).
Data set [6] concerns the target T1, DENV RdRp. The data set is described as follows: Bio-layer interferometry (BLI) binding assay, DENV RdRp.
The test system of the next data set is A549 cells. The data set is described as follows: Cytotoxicity analysis (Cell Counting kit-8), A549. The class given is cell-based. Conditions: up to 10 μM, 48 h, CCK-8. How it is done: as §1
The nature of data set [7]: Cytotoxicity analysis (Cell Counting kit-8), A549. The class given is cell-based. Conditions: human, A549 cells, CCK-8. The procedure: as §1

Take `COc1ccc(CC(=O)O)cc1-c1ccccc1` [JF-31-MG46, 2-(4-methoxy-3-phenyl-phenyl)ethanoic acid]: the negative logarithm of the Kd (pKd) at DENV RdRp [1] was 3.68.
In the data set with hNV-RdRp, `O=c1[nH]c2ccccc2n1C1CCN(Cc2ccc(-c3nc4cc5[nH]cnc5cc4nc3-c3ccccc3)cc2)CC1` [RAI-5, AKT inhibitor VIII] gave a negative-log IC50 (pIC50) of 4.33. Besides, on DENV RdRp [2], the “inhibitory effect on DENV RdRp activity” value is “no inhibitory effect”.
Regarding `CN1CCN(c2ccc(C(=O)Nc3n[nH]c4ccc(Cc5cc(F)cc(F)c5)cc34)c(NC3CCOCC3)c2)CC1` [RAI-13, Entrectinib], the “plus-strand and minus-strand RNA levels of DENV2” value in the data set on DENV2 (Tr1751) (2 μM, infected A549 cells) was “inhibits the synthesis of both plus-strand and minus-strand RNA”. The pIC50 in the data set on DENV2 (Tr1751) (Dengue virus, DENV2, A549, read-out: IC50 inhibition of DENV2 infection (abstract)) is 5.61; in the data set with hNV-RdRp, 4.33; with MNV(SH1603) (Norwalk virus, RAW264.7, in abstract, read-out: IC50 inhibition of MNV infection (abstract)), 5.70. Moreover, the pEC50 in the data set with DENV2 (Tr1751) (Dengue virus, A549 cells, 48 h, DENV2 RNA by qRT-PCR, read-out: EC50 inhibition of DENV2 infection) is 5.61; with MNV(SH1603) (Norwalk virus, RAW264.7 cells, 48 h, MNV RNA by qRT-PCR, read-out: EC50 inhibition of MNV infection), 5.70. The pKd is 4.40 on hNV RdRp and 3.78 on DENV RdRp [6]. In addition, the “effect on Gluc activity” value in data set [3] is listed as “no inhibitory effect”. Further, the LD50 result in data set [4] was “above 2000 mg/kg”. For the same compound, the inhibition at 1 µM with Jc1-Gluc HCVcc (Huh-7.5.1, 48 h, read-out: inhibition of Jc1 HCVcc infection) is 95%. Besides, the inhibition at 2 µM with Jc1-Gluc HCVcc (Huh-7.5.1, read-out: inhibition of HCV infection (abstract)) came out at 95%. The “inhibitory effect on DENV RdRp activity” value against DENV RdRp [2] was “markedly inhibited”. Moreover, the “cytotoxic effect on RAW264.7 cells” value in the data set on RAW264.7 cells was “No cytotoxic effect; also recorded: did not observe apparent cytotoxicity”. Moreover, the results for the 50% cytotoxic concentration (CC50) at 48 h in data set [5] and in data set [7] were 13.2 µM and 20.8 µM, respectively. Also, the “plus-strand and minus-strand RNA levels of MNV” value in the data set on MNV(SH1603) (2.5 μM, infected RAW264.7 cells) was “inhibits the synthesis of both plus-strand and minus-strand RNA”. In the data set with VSV-G/HIV-Fluc, the “inhibition of HIV-1 (VSV-G/HIV-Fluc) infection” value is recorded as “did not show any inhibition effect”. For the same compound, in the data set on A549 cells, the “cytotoxic effect on A549 cells” value is given as “No cytotoxic effect; also recorded: did not observe apparent cytotoxicity”.
`Cc1ccc(NC(=O)Nc2cc(C(F)(F)F)ccc2F)cc1Nc1ccc2c(c1)NC(=O)/C2=C\c1ccc[nH]1` [RAI-14, GNF-5837] gave a pIC50 in the data set on hNV-RdRp of 4.34. Besides, the “inhibitory effect on DENV RdRp activity” value against DENV RdRp [2] is recorded as “no inhibitory effect”.

The term pKd denotes the Kd on a negative log10 scale, so that one unit is a factor of ten. Broadly, the pIC50 is the negative decadic logarithm of the IC50, by convention in mol/L. For orientation: pEC50 means the EC50 on a negative log10 scale, so that one unit is a factor of ten. One may read the inhibition as the share of the control response that was lost under treatment. What is called CC50 is the concentration giving 50% cytotoxicity.
